Results from ChEMBL document CHEMBL1201862, “PubChem BioAssay data set” (2004).
The source made the active and inactive calls.

Key:
[1] = molecular target: ADP-ribosylation factor GTPase-activating protein 1 (Rattus norvegicus, UniProt Q62848); test: Fluorescence polarization-based biochemical high throughput dose response screening assay to identify inhibitors of ADP-ribosylation factor GTPase activating protein 1 (ARFGAP1).; type: functional
[2] = molecular target: Arf-GAP with SH3 domain, ANK repeat and PH domain-containing protein 1 (Homo sapiens, UniProt Q9ULH1); type: functional;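 also: biochemical fluorescence polarization dose–response screen measuring inhibition of ASAP1; ASAP1 GAP domain stimulating GTP hydrolysis by truncated human ARF1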
[3] = molecular target: T1, DNA repair and recombination protein RAD54-like (Homo sapiens, UniProt Q92698); test: RAD54 Holliday junction migration blockers – biochemical, fluorescence, cherry-picked samples, dose series, confirmation (AID 651657); type: functional
T1 sequence (Q92698 whole entry): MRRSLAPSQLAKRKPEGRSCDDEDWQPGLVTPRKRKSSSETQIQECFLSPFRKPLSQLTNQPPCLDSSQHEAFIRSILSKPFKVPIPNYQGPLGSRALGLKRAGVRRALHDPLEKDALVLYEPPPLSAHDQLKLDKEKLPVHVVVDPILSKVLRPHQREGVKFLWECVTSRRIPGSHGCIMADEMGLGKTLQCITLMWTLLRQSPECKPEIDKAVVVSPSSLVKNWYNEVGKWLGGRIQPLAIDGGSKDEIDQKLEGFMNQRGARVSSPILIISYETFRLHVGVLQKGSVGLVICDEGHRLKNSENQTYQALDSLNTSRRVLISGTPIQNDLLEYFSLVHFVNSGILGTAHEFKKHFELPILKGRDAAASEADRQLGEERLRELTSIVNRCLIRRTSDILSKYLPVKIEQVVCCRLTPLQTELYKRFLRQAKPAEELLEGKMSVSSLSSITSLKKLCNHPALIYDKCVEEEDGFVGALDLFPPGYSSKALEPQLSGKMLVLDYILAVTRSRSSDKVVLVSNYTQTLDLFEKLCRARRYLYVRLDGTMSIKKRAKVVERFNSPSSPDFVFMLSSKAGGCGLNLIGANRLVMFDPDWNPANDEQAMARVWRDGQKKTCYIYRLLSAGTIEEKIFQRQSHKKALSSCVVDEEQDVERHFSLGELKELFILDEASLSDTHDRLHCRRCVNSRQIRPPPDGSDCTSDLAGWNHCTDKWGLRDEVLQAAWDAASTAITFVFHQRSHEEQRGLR

[4] = cytotoxicity toward MDA-MB-231 breast cancer cells – cell-based, CellTiter-Glo luminescence, cherry-pick, cytotoxicity control for RAD54 inhibitor project, dose response (AID 651692); type: functional
[5] = molecular target: T2, DNA repair protein RAD52 homolog (Homo sapiens, UniProt P43351); type: functional, biochemical
T2 sequence (P43351 whole entry): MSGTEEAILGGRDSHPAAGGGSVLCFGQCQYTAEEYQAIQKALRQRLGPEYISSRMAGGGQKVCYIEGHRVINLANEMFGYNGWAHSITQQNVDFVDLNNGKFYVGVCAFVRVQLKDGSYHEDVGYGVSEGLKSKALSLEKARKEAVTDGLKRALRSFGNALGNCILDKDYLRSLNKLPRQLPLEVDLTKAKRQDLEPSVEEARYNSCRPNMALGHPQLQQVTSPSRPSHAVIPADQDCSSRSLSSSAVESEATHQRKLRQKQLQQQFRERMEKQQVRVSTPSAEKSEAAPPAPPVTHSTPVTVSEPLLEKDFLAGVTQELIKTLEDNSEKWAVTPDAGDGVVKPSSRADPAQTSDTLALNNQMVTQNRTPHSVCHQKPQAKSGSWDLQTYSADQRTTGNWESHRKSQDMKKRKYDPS

[6] = molecular target: T3, Tyrosine-protein phosphatase non-receptor type 11 (Homo sapiens, UniProt Q06124); test: PTPN11 enzyme inhibitors – biochemical, selectivity assay for STEP inhibitor project, dose response (AID 602367); type: functional; settings: read-out: IC50_Mean
T3 sequence (Q06124 whole entry): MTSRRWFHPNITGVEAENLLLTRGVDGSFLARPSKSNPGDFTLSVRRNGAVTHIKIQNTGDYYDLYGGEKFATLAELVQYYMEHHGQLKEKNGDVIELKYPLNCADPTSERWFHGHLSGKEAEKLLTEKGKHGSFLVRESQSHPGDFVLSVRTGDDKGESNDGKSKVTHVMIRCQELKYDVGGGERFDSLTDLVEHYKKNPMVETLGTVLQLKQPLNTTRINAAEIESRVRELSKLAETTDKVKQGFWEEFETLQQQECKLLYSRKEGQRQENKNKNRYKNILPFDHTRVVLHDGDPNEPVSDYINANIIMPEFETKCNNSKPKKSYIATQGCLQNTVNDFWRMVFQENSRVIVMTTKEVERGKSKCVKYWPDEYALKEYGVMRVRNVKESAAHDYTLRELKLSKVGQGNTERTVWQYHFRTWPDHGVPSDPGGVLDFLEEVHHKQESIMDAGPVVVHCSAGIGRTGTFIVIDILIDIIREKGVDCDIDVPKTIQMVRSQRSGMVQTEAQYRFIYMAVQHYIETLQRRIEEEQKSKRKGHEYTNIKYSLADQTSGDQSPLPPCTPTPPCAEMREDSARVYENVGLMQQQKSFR

[7] = molecular target: T4, Tyrosine-protein phosphatase non-receptor type 5 (Homo sapiens, UniProt P54829); test: PTPN5 enzyme inhibition – biochemical, fluorescence intensity, uHTS hits, confirmation (AID 602372); type: functional; settings: read-out: IC50_Mean
T4 sequence (P54829 whole entry): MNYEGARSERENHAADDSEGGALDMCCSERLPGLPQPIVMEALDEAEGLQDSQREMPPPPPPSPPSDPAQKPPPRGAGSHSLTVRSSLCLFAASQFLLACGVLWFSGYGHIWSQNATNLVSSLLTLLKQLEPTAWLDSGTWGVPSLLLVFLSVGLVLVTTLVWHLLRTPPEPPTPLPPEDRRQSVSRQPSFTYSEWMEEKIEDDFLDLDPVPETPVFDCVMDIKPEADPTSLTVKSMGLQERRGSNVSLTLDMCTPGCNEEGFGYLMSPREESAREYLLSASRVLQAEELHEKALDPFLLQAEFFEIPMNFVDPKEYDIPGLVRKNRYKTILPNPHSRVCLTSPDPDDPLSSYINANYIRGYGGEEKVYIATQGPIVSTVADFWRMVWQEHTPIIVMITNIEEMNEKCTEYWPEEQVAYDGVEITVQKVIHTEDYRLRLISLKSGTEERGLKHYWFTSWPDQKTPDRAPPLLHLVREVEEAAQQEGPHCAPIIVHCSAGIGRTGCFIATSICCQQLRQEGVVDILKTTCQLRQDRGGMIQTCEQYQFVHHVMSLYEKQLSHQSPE

[8] = molecular target: T5, Tyrosine-protein phosphatase non-receptor type 22 (Homo sapiens, UniProt Q9Y2R2); test: lymphoid phosphatase LYP inhibitors – biochemical, selectivity assay for STEP inhibitor project, dose response (AID 624241); type: functional
T5 sequence (Q9Y2R2 whole entry): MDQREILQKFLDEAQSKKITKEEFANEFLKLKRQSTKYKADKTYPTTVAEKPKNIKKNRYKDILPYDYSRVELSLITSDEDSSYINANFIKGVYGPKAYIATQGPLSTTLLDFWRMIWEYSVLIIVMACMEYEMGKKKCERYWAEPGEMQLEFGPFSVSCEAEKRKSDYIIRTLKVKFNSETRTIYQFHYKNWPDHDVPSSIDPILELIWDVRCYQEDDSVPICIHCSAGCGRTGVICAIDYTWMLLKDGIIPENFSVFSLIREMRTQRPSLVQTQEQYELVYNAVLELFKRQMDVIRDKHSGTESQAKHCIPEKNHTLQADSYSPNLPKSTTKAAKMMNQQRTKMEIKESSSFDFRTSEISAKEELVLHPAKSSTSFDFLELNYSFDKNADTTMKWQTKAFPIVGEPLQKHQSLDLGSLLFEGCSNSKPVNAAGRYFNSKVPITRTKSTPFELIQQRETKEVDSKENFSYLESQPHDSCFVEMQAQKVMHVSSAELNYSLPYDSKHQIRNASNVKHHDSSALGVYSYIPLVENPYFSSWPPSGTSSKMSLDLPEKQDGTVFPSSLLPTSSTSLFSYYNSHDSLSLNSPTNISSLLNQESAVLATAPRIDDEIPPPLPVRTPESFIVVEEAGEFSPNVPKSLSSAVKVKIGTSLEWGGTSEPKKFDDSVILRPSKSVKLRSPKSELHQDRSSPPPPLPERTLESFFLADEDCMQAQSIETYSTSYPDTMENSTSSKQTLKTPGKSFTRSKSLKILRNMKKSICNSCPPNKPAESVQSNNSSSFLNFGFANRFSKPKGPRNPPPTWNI

[9] = molecular target: DNA (cytosine-5)-methyltransferase 1 (Homo sapiens, UniProt P26358); test: inhibition of DNA methylation by DNMT1 – biochemical, fluorescent molecular beacon, confirmation (AID 602386); type: functional
[10] = molecular target: T6, Estrogen receptor (Homo sapiens, UniProt P03372);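 also: potency for inhibiting coactivator peptide recruitment to the receptor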
T6 sequence (P03372 whole entry): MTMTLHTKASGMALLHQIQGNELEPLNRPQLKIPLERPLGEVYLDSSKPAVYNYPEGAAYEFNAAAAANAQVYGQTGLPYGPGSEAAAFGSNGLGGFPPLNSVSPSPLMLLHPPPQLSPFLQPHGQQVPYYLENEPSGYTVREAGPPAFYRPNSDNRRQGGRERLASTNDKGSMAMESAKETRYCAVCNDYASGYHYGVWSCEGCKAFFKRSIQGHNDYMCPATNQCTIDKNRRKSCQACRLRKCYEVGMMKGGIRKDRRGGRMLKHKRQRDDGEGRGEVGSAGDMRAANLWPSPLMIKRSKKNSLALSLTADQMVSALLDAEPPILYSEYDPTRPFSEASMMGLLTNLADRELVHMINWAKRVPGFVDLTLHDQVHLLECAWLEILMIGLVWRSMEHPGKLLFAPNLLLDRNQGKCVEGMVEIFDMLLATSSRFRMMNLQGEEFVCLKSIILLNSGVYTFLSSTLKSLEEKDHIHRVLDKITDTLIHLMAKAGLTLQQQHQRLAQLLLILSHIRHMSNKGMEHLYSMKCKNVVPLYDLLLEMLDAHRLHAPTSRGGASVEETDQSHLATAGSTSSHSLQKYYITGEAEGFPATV

[11] = molecular target: T7, Tyrosine-protein phosphatase non-receptor type 7 (Homo sapiens, UniProt P35236); test: HePTP tyrosine phosphatase activity blockers – biochemical, absorbance, leukemia target, primary screen (AID 521); type: functional
T7 sequence (P35236 whole entry): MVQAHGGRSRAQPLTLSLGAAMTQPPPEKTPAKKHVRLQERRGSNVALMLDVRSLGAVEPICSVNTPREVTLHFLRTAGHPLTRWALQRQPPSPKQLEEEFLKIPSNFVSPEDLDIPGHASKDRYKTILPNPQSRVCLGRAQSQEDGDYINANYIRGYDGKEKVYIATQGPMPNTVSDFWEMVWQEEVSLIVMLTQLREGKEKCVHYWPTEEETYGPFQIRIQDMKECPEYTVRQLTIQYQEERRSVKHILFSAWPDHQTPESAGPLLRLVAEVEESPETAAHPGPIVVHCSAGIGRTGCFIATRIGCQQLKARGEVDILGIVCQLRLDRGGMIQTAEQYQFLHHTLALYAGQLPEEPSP

[12] = molecular target: Dual specificity protein phosphatase 3 (Homo sapiens, UniProt P51452); test: VHR phosphatase inhibition, dose response, selectivity assay for STEP inhibitor project, biochemical (AID 602374); type: functional; settings: read-out: IC50_Mean
[13] = molecular target: Bcl-2-like protein 10 (Homo sapiens, UniProt Q9HD36); test: Bcl-B/TR3 peptide binding disruption – biochemical, fluorescence polarization, FITC-TR3 peptide, selectivity assay for Bfl-1 inhibitor project, primary screen (AID 748);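 also: fluorescence polarization from a fluorescein-labelled TR3 peptide binding purified Bcl-B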
[14] = molecular target: T8, Estrogen receptor beta (Homo sapiens, UniProt Q92731);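 also: recombinant ER-beta bound to coactivator SRC1 peptide in presence of estradiol agonist; inhibitors block coactivator peptide binding and lower the FRET signal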
[15] = molecular target: T8, Estrogen receptor beta; test: blockers of SRC-3 recruitment to ERβ – biochemical, ELISA, streptavidin-HRP readout, orthogonal assay, confirmation (AID 1060)
[16] = HIV-1 Vif–A3G interaction blockers – biochemical, TR-FRET, GST-Vif 1-94, biotin-A3G peptide, dose response retest, primary screen (AID 1117319); type: functional;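 also: TR-FRET signal of purified GST-Vif binding a biotinylated A3G peptide; inhibitors lower the FRET signal by blocking Vif and A3G binding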

T8 sequence (Q92731 whole entry): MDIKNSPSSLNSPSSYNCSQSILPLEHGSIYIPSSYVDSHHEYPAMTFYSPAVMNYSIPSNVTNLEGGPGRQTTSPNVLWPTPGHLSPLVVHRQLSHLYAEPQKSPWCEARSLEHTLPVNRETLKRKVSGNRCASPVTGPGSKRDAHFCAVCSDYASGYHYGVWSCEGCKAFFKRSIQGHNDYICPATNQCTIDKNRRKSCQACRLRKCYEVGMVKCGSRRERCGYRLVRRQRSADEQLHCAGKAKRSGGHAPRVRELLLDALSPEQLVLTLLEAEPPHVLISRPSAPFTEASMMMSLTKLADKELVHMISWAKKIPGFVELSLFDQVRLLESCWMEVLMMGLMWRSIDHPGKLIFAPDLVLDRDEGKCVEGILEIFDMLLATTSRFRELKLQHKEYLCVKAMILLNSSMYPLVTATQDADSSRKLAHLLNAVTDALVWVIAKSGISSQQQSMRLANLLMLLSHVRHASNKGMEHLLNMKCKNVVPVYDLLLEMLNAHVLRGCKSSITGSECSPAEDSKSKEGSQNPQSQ
Sequence of Arf-GAP with SH3 domain, ANK repeat and PH domain-containing protein 1 (Q9ULH1 whole entry, the tested form may be a part): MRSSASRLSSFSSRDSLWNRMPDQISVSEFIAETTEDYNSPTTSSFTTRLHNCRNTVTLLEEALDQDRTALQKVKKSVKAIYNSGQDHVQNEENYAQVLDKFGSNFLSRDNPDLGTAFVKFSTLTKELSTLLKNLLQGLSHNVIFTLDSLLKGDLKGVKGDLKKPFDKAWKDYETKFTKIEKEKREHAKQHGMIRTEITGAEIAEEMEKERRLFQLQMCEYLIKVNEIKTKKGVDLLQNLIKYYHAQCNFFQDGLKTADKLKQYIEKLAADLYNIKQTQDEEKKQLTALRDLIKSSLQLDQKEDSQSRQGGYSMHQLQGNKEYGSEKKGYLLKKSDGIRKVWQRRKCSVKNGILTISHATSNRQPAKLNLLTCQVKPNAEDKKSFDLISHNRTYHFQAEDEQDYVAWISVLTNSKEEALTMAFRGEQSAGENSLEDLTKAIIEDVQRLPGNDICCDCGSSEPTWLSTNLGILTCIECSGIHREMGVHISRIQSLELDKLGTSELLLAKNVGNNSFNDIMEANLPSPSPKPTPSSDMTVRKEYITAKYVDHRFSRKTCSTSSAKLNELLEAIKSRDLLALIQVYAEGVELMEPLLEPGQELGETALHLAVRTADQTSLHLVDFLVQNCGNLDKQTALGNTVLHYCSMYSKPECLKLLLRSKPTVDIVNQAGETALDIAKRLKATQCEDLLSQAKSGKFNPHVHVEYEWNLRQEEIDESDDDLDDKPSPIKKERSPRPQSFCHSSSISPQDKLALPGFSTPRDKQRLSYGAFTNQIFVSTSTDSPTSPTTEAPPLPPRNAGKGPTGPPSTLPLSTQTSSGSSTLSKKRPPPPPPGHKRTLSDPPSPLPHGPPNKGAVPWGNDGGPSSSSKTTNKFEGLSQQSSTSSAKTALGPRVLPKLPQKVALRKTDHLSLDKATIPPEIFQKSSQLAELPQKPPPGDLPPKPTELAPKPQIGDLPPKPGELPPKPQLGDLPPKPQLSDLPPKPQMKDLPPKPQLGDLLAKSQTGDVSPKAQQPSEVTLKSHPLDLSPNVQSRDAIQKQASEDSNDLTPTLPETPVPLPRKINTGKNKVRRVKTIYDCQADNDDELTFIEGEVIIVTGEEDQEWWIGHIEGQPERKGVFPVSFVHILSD
Sequence of DNA (cytosine-5)-methyltransferase 1 (P26358 whole entry): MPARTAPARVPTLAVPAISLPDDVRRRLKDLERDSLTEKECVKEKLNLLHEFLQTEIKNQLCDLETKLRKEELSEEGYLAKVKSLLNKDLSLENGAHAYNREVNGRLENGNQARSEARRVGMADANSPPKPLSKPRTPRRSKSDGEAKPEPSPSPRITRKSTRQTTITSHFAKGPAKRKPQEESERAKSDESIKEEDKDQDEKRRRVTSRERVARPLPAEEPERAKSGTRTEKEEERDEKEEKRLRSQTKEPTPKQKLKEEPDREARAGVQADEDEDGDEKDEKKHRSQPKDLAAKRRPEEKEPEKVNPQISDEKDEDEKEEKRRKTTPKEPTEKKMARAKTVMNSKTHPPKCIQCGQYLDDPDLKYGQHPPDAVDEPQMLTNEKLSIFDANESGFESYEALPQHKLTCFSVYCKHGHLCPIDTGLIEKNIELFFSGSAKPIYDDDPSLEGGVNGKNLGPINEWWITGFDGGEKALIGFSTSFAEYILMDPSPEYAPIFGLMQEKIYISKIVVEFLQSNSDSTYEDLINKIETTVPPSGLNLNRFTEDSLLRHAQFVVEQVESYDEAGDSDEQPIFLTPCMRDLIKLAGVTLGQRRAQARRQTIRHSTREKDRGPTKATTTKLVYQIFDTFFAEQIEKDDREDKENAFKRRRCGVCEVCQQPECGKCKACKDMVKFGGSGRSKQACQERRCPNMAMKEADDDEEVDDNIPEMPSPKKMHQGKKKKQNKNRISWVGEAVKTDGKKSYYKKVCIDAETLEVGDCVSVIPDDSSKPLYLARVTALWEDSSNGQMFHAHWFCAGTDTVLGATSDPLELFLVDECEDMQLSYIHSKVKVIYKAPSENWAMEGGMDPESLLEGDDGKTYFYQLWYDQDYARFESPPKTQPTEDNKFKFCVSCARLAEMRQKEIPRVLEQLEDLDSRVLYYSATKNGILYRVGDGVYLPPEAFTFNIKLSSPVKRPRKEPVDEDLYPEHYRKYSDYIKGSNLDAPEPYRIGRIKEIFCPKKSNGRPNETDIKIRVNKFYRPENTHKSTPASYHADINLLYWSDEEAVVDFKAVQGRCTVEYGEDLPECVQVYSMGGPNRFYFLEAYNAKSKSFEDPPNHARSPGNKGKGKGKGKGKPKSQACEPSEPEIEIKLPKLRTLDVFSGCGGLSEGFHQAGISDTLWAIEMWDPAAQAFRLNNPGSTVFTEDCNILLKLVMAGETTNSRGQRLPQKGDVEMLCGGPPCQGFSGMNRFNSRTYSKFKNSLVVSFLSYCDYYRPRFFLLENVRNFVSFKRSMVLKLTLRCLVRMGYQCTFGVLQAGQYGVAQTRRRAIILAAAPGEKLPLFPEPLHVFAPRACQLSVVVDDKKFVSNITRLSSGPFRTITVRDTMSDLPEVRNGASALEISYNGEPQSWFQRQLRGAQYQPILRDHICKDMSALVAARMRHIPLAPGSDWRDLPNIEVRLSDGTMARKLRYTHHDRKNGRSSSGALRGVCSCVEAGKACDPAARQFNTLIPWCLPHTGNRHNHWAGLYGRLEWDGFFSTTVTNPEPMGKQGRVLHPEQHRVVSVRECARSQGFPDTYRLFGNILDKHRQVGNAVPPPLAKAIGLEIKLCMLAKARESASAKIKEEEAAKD
Sequence of ADP-ribosylation factor GTPase-activating protein 1 (Q62848 whole entry, the tested form may be a part): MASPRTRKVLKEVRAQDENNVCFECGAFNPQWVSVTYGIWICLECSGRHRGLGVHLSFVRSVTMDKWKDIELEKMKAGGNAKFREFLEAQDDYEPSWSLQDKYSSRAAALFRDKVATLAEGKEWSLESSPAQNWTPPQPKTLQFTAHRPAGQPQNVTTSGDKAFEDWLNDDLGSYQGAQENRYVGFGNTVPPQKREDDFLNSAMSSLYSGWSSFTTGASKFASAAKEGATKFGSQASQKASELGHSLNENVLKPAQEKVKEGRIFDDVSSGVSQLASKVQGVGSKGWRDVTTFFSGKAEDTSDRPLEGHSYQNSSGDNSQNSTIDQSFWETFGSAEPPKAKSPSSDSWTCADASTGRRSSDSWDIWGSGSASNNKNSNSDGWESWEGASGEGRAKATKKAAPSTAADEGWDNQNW
Sequence of Bcl-2-like protein 10 (Q9HD36 whole entry): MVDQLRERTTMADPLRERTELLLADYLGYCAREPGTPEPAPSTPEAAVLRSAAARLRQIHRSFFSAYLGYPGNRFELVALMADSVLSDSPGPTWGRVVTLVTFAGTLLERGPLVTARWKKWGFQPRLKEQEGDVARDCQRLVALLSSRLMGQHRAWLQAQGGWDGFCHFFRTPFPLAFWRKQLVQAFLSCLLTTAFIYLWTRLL
Sequence of Dual specificity protein phosphatase 3 (P51452 whole entry): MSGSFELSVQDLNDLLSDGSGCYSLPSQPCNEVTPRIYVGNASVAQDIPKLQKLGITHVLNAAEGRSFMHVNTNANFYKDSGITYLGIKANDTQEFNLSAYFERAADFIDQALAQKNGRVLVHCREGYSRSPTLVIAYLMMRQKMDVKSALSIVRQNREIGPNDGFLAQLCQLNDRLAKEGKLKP

Structure (SMILES): Cc1ccc2nc(SCC(=O)N3CC(C)OC(C)C3)nc(=O)n2c1 (stereo unspecified)
- IC50 [1]: 10.7 µM (inactive)
- IC50 [2]: 20.9 µM (inactive)

Structure (SMILES): Cc1cc2oc3ccc(NCCC4CCCN4C)cc3c(=O)c2cc1C (stereo unspecified)
- AC50 [3]: 14.7 µM (active)
- AC50 [4]: 23.6 µM (active)
- AC50 [5]: 8.31 µM (active)

Structure (SMILES): COc1ccc(OC)c(N2C(=O)[C@@H]3C(c4ccccc4Cl)=NO[C@@H]3C2=O)c1
- IC50 [6]: 0.469 µM (active)
- IC50 [7]: 24.4 µM (inactive)
- IC50 [8]: > 100 µM (inactive)
- IC50 [9]: 4.35 µM (active)
- IC50 [10]: 9.78 µM (active)
- IC50 [11]: 8.25 µM (active)
- IC50 [12]: 0.833 µM (active)
- IC50 [13]: 14.9 µM (active)
- IC50 [14]: 2.49 µM (active)
- IC50 [15]: > 50 µM (not active)
- IC50 [16]: > 100 µM (active)
